Measured values: patent US4914086A, “Method for treating African human and veterinary trypanosomiases” (priority 1987, dated 1990)
“Also recorded” adds a separate entry of the source.

Tests used:
T. b. brucei EATRO 110 = experiment: Drug screen, acute EATRO 110 mouse infection (Tables 1, 3); format: in vivo, Trypanosoma brucei brucei (in Swiss-Webster mice); conditions: for activity in words: 300 mg/kg; for activity in the acute (short term) EATRO 110 model, in words: text summary
Source text: (§1) T. b. brucei EATRO 110 isolate was maintained as described (Bacchi, C. J., H. C. Nathan, S. H. Hutner, P. P. McCann and A. Sjoerdsma; Polyamine metabolism: a potential chemotherapeutic target in trypanosomes. Science 210: 332-334, 1980). It produces an acute, rapidly fatal parasitemia which is lethal to mice 3-5 days after inoculation. Two T. B. brucei strains, TREU 667 and LUMP 1001 developed by Jennings and coworkers (Jennings, F. W., D. D. Whitelaw and G. M. Urquhart; The relationship between duration of infection with Trypanosoma brucei in mice and the efficacy of chemotherapy. Parasitology 75: 143-153, 1977/Jennings, F. W. and G. D. Gray; Relapsed parasitemia following chemotherapy of chronic T. brucei infections in mice and its relation to cerebral trypanosomes; Contr. Microbiol. Immunol. 7 147-154, 1983) were used as CNS models. Both produce infections which are refractory to Berenil® (diminazene aceturate) and develop within 21 days after inoculation. They are not usually fatal until >40 days after inoculation. LUMP 1001 causes a more virulent CNS infection than TREU 667, and is regarded as more difficult to cure (Jennings, F. W. and G. D. Gray. Relapsed parasitemia following chemotherapy of chronic T. brucei infections in mice and its relation to cerebral trypanosomes. Contr. Microbiol. Immunol. 7 147-154, 1983).
(§2) Swiss-Webster (25-30 g) mice were used throughout. In the EATRO 110 model, groups of 100 mice were infected (10^5 trypanosomes/mouse) and the infection was allowed to develop 24 hours before commencing therapy. Animals were divided into groups of 5 before treatment. Cured animals survived >30 days beyond deaths of controls. All compounds were administered by i.p. injection.
Other methods as in Table 1.

[1] = system: human colon carcinoma cells; conditions: cited from earlier work
T. b. brucei TREU 667 = experiment: CNS model, T. b. brucei TREU 667 infection in mice (Table 4); format: in vivo, Trypanosoma brucei brucei (in Swiss-Webster mice); conditions: for efficacy in CNS model in words: 100 mg/kg × 6 doses/days
Source text: as §1
The models for […] nervous system infections used TREU 667 and LUMP 1001 strains which were stored frozen and passaged once in rats before infection of mice. Maintenance and use of these screens were as described (Clarkson, A. B. Jr., C. J. Bacchi, G. H. Mellon, H. C. Nathan, P. P. McCann and A. Sjoerdsma. Efficacy of DFMO+blemoycin in a mouse model of central nervous system African trypanosomiasis. Proc. Natl. Acad. Sci. USA. 80: 5729-5733, 1983/Clarkson, A. B. Jr., E. J. Biene, C. J. Bacchi, P. P. McCann, S. H. Hutner and A. Sjoerdsma. New drug combination for experimental late stage African trypanosomiasis: DFMO with suramin. Am. J. Trop. Med. Hyg. 33: 1073-1077, 1984/Dube, D. K., G. Mpimbaza, A. C. Allison, E. Lederer and L. Rovis. Antitrypanosomal activity of sinefungin, Am. J. Trop. Med. Hyg. 32: 31-33, 1983/Fish, W. R., J. J. Marr, R. L. Berens, D. L. Looker, D. J. Nelson, S. LaFon and A. E. Balber. Inosine analogs as chemotherapeutic agents for African trypanosomes: metabolism in trypanosomes and efficacy in tissue culture. Anti-microb. Ag. Chemother. 27: 33-36, 1985/Clazer, R. I., and L. S. Lloyd. Effects of 8-azaadenosine and formycin on cell lethality and the synthesis and methylation of nucleic acids in human colon carcinoma cells in culture. Biochem. Pharmacol. 31: 3207-3214, 1982/Bacchi, C. J., H. C. Nathan, A. B. Clarkson, Jr., E. J. Bienen, A. J. Bitonti, P. P. McCann and A. Sjoerdsma. Activity of the ornithine decarboxylase inhibitors DL-α-difluoromethylornithine and monofluormethyldehydroornithine methylester alone and in combination with suramin against Trypanosoma brucei brucei central nervous system models, Am. J. Trop. Med. Hyg. (in press)). Briefly, groups of 100-120 mice were infected and the infections allowed to develop until day 21, when the animals were separated into groups of 10 and therapy commenced. Controls were treated with Berenil (40 mg/kg) on day 21. These always relapsed 40-70 days after treatment. Parasitemia was followed by examining tail vein blood smears once weekly. Animals which had relapsed were removed from cages. TREU 667 infections were followed >225 days after inoculation and LUMP 1001 were followed >280 days, as determined by the relapse pattern in previous work (Bacchi, C. J., H. C. Nathan, A. B. Clarkson, Jr., E. J. Bienen, A. J. Bitonti, P. P. McCann and A. Sjoerdsma. Activity of the ornithine decarboxylase inhibitors DL-α-difluoromethylornithine and monofluormethyldehydroornithine methylester alone and in combination with suramin against Trypanosoma brucei brucei central nervous system models. Am. J. Trop. Med. Hyg. (in press)). […]

in vivo = experiment: in vivo
Method: as §2

[2] = system: Trypanosoma brucei gambiense; conditions: bone marrow tissue culture system; cited from earlier work
[3] = system: Trypanosoma brucei rhodesiense; conditions: bone marrow tissue culture system; cited from earlier work
Pneumocystis Carinii = conditions: tissue culture; cited from earlier work
mouse L cells = conditions: cited from earlier work
T. cruzi = conditions: previous studies; cited from earlier work
Leishmania spp = conditions: previous studies; cited from earlier work
African trypanosomes = conditions: previous studies; cited from earlier work
mammalian cells = conditions: cited from earlier work
human macrophages = conditions: cited from earlier work
T. brucei subsp. = conditions: cited from earlier work
[4] = Table 1, 250 mg/kg i.p., treatment begun 24 h post infection
[5] = Table 1, 2.5 mg/kg i.p. (9-DINO, sinefungin once daily for 3 days)
[6] = Table 1, 5 mg/kg i.p. (9-DINO, sinefungin once daily for 3 days)
[7] = Table 1, 10 mg/kg i.p. (9-DINO, sinefungin once daily for 3 days)
[8] = Table 1, 25 mg/kg i.p. (9-DINO, sinefungin once daily for 3 days)
[9] = Table 1, 50 mg/kg i.p. (9-DINO, sinefungin once daily for 3 days)
[10] = Table 1, 100 mg/kg i.p. (9-DINO, sinefungin once daily for 3 days)
[11] = Table 3, 0.05 mg/kg i.p. once daily for 3 days
[12] = Table 3, 0.1 mg/kg i.p. once daily for 3 days
[13] = Table 3, 0.25 mg/kg i.p. once daily for 3 days
[14] = Table 3, 0.5 mg/kg i.p. once daily for 3 days
[15] = Table 1, 300 mg/kg i.p., treatment begun 24 h post infection

O=c1ncnc2n([C@H]3O[C@@H](CO)[C@H](O)[C@@H]3O)[nH]cc1-2 (stereo in doubt) [Allopurinol Riboside, reference compound]
activity in words (T. b. brucei EATRO 110): completely inactive | # Cured/Total (T. b. brucei EATRO 110; [4]): 0/5 | % Cured (T. b. brucei EATRO 110; [4]): 0%

Nc1ncnc2c([C@@H]3O[C@H](CO)[C@@H](O)[C@H]3O)n[nH]c12 [formycin A]
incorporation into DNA in words [1]: can be incorporated into DNA

O=c1[nH]cnc2c([C@@H]3O[C@H](CO)[C@@H](O)[C@H]3O)n[nH]c12 [Formycin B, 7-hydroxypyrazolo (4,3-d) pyrimidine ribonucleoside]
curative / active dose range (T. b. brucei EATRO 110; EATRO 110, text): 5 to 100 mg/kg | # Cured/Total (T. b. brucei EATRO 110; [5]): 5/5 | % Cured (T. b. brucei EATRO 110; [5]): 100% | # Cured/Total (T. b. brucei EATRO 110; [6]): 4/5 | % Cured (T. b. brucei EATRO 110; [6]): 80% | # Cured/Total (T. b. brucei EATRO 110; [7]): 5/5 | % Cured (T. b. brucei EATRO 110; [7]): 100% | # Cured/Total (T. b. brucei EATRO 110; [8]): 9/10 | % Cured (T. b. brucei EATRO 110; [8]): 90% | # Cured/Total (T. b. brucei EATRO 110; [9]): 5/5 | % Cured (T. b. brucei EATRO 110; [9]): 100% | # Cured/Total (T. b. brucei EATRO 110; [10]): 4/5 | % Cured (T. b. brucei EATRO 110; [10]): 80% | # Cured/Total (T. b. brucei EATRO 110; [11]): 0/5 | % Cured (T. b. brucei EATRO 110; [11]): 0% | # Cured/Total (T. b. brucei EATRO 110; [12]): 0/5 | % Cured (T. b. brucei EATRO 110; [12]): 0% | # Cured/Total (T. b. brucei EATRO 110; [13]): 1/10 | % Cured (T. b. brucei EATRO 110; [13]): 10% | # Cured/Total (T. b. brucei EATRO 110; [14]): 3/5 | % Cured (T. b. brucei EATRO 110; [14]): 60% | relative activity of formycin B versus 9-DINO (T. b. brucei EATRO 110; comparison of activity ranges): > 10 X | activity in the acute (short term) EATRO 110 model, in words (T. b. brucei EATRO 110): most active; also recorded: extremely active | activity in the acute (short term) EATRO 110 model, in words (T. b. brucei EATRO 110; listed as formycin B): greatest activity; also recorded: more active than 9-DINO | # Cured/Total (T. b. brucei TREU 667; 5 mg/kg i.p., 7 days): 0/8 | % Cured (T. b. brucei TREU 667; 5 mg/kg i.p., 7 days): 0% | Avg. Day of Relapse (Range) (T. b. brucei TREU 667; 5 mg/kg i.p., 7 days): 42 (37-49) Day | # Cured/Total (T. b. brucei TREU 667; 10 mg/kg i.p., 7 days): 0/9 | % Cured (T. b. brucei TREU 667; 10 mg/kg i.p., 7 days): 0% | Avg. Day of Relapse (Range) (T. b. brucei TREU 667; 10 mg/kg i.p., 7 days): 40 (37-41) Day | # Cured/Total (T. b. brucei TREU 667; 25 mg/kg i.p., 7 days): 0/10 | % Cured (T. b. brucei TREU 667; 25 mg/kg i.p., 7 days): 0% | Avg. Day of Relapse (Range) (T. b. brucei TREU 667; 25 mg/kg i.p., 7 days): 40 (37-68) Day | # Cured/Total (T. b. brucei TREU 667; 50 mg/kg i.p., 6 days): 0/10 | % Cured (T. b. brucei TREU 667; 50 mg/kg i.p., 6 days): 0% | Avg. Day of Relapse (Range) (T. b. brucei TREU 667; 50 mg/kg i.p., 6 days): 34 (23-35) Day | # Cured/Total (T. b. brucei TREU 667; 100 mg/kg i.p., 6 days): 0/9 | % Cured (T. b. brucei TREU 667; 100 mg/kg i.p., 6 days): 0% | Avg. Day of Relapse (Range) (T. b. brucei TREU 667; 100 mg/kg i.p., 6 days): 35 days | efficacy in CNS model in words (T. b. brucei TREU 667): not curative | efficacy in CNS model in words (T. b. brucei TREU 667; listed as formycin B): failed to protect | toxicity in words (in vivo; 100 mg/kg): toxicity was observed; also recorded: loss of hair | mortality (in vivo; mouse, in vivo, ip, 100 mg/kg): 20% | dose at which toxicity appeared (in vivo; short term model, Table 1): 100 mg/kg | activity in words [2]: active at very low concentrations; also recorded: somewhat more efficacious than 9-deazainosine | activity in words [3]: active at very low concentrations; also recorded: somewhat more efficacious than 9-deazainosine | activity in words (Pneumocystis Carinii): active | metabolism in words (mouse L cells): Mouse L cells can convert formycin B to the analogs of adenine nucleotides and incorporate the ATP analog into RNA | activity in words (T. cruzi): active | activity in words (Leishmania spp): active | activity in words (African trypanosomes): active | cleavage into ribose and purine analog moieties (mammalian cells): cannot be cleaved into ribose and purine analog moieties | metabolism in words (mammalian cells): metabolized by mammalian cells to its aminated analog formycin A | conversion to adenine nucleotide analogs / incorporation in words (human macrophages): this occurred in human macrophages | metabolism in words (T. brucei subsp.): can be aminated by T. brucei subsp. and converted to analogs of ATP

Oc1ncnc2[nH]ncc12 [Allopurinol, reference compound]
activity in words (T. b. brucei EATRO 110): completely inactive | # Cured/Total (T. b. brucei EATRO 110; [15]): 0/5 | % Cured (T. b. brucei EATRO 110; [15]): 0%
